In paper PMC10194981, “Chemosensory protein regulates the behavioural response of Frankliniella intonsa and Frankliniella occidentalis to tomato zonate spot virus–Infected pepper (Capsicum annuum)” (PLOS Pathogens, 2023):

Experiments:
FintCSP1-Thr28Ala = FintCSP1-Thr28Ala (Frankliniella intonsa, UniProt A0A891LVF4, T28A); experiment: Fluorescence (1-NPN) binding and competitive binding assay, FintCSP1 mutant
Method: (§1) The binding affinity of FintCSP1 and FoccCSP to the fluorescent probe N-phenyl-1-naphthylamine (1-NPN) was tested using a Spectramax M2 fluorescence spectrometer (Molecular Devices, USA) as reported previously. […] The 1-NPN/FintCSP1 or 1-NPN/FoccCSP mixture was excited at 280 nm, and the emission spectra were recorded at 415 nm. The binding constants (Kd) of FintCSP1 or FoccCSP to 1-NPN were calculated by Scatchard analysis using Prism 5 software (GraphPad, La Jolla, CA, USA). Assuming a protein activity of 100% and that the volatile compound binds to the protein in a 1:1 ratio at saturation, the dissociation constants (Ki) of FintCSP1 or FoccCSP for each ligand were calculated according to the IC50 (the concentration when the ligand replaces 50% of the probe) value of the volatile compounds. The Ki values were calculated according to the following equation: Ki = [IC50]/(1 + [1-NPN]/K1-NPN), where [1-NPN] is the free concentration of 1-NPN, and K1-NPN is the Kd of the 1-NPN/FintCSP1 or 1-NPN/FoccCSP.
(§2) To verify the key amino acids of FintCSP1 and FoccCSP that bind to cis-3-hexenal, six amino acid residues of FintCSP1 were mutated (Lys26Ala, Phe27Ala, Thr28Ala, Glu67Ala, Ser84Ala, and the negative control residue Val132Ala) and nine amino acid residues of FoccCSP were mutated (Lys26Ala, Phe27Ala, Thr28Ala, Thr29Ala, Tyr31Ala, Asp64Ala, Glu67Ala, Gln87Ala, and the negative control residue Val132Ala) with the Fast Mutagenesis System Kit (Transgen Biotech, Beijing, China) using the pET-30a/FintCSP1 and pET-30a/FoccCSP plasmid DNA as template, respectively. Specific primers were designed using Primer Premier 5.0 according to the instructions of the Fast Mutagenesis System Kit (S1 Table). After validation by sequencing, each recombinant variant protein was produced and purified as described above, and their binding affinity to cis-3-hexenal was measured as described above.

FintCSP1-Glu67Ala = FintCSP1-Glu67Ala (Frankliniella intonsa, UniProt A0A891LVF4, E67A); experiment: as above
FintCSP1-Glu67Ala, sequence (A0A891LVF4 entry or part of it E67A): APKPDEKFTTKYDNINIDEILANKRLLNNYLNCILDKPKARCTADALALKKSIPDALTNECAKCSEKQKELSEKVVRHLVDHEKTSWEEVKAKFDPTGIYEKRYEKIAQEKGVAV
Method: as §1, §2

FintCSP1-Phe27Ala = FintCSP1-Phe27Ala (Frankliniella intonsa, UniProt A0A891LVF4, F27A); experiment: as above
FintCSP1-Phe27Ala, sequence (A0A891LVF4 entry or part of it F27A): as the sequence (A0A891LVF4 entry or part of it E67A) above, with F8A, A48E counted along it
Method: as §1, §2

FintCSP1-Lys26Ala = FintCSP1-Lys26Ala (Frankliniella intonsa, UniProt A0A891LVF4, K26A); experiment: as above
FintCSP1-Lys26Ala, sequence (A0A891LVF4 entry or part of it K26A): as the sequence (A0A891LVF4 entry or part of it E67A) above, with K7A, A48E counted along it
Method: as §1, §2

FoccCSP-Glu67Ala = FoccCSP-Glu67Ala (Frankliniella occidentalis, UniProt G4Y3X1, E67A); experiment: Fluorescence (1-NPN) binding and competitive binding assay, FoccCSP mutant
FoccCSP-Glu67Ala, sequence (G4Y3X1 entry or part of it E67A): as the sequence (A0A891LVF4 entry or part of it E67A) above, with D5E, I15V, A44N, A62M, V80A, D81E, H82K, T85E, Q109K counted along it
Method: as §1, §2

FoccCSP-Thr29Ala = FoccCSP-Thr29Ala (Frankliniella occidentalis, UniProt G4Y3X1, T29A); experiment: as above
FoccCSP-Thr29Ala, sequence (G4Y3X1 entry or part of it T29A): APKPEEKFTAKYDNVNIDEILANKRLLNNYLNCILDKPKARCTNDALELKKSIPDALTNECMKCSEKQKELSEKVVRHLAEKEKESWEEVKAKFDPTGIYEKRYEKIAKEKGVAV
Method: as §1, §2

FoccCSP-Asp64Ala = FoccCSP-Asp64Ala (Frankliniella occidentalis, UniProt G4Y3X1, D64A); experiment: as above
FoccCSP-Asp64Ala, sequence (G4Y3X1 entry or part of it D64A): as the sequence (G4Y3X1 entry or part of it T29A) above, with A10T, D45A counted along it
Method: as §1, §2

FoccCSP-Thr28Ala = FoccCSP-Thr28Ala (Frankliniella occidentalis, UniProt G4Y3X1, T28A); experiment: as above
FoccCSP-Thr28Ala, sequence (G4Y3X1 entry or part of it T28A): as the sequence (G4Y3X1 entry or part of it T29A) above, with T9A, A10T counted along it
Method: as §1, §2

F. occidentalis = experiment: Y-tube olfactometer preference test; assay type: in vivo, Frankliniella occidentalis; settings: dsFoccCSP-injected; vs liquid paraffin control
Method: F. intonsa and F. occidentalis preference tests of plant volatile cues were performed using a glass Y-tube olfactometer according to the method described by Wang et al. (2014) with minor modifications. A Y-shaped tube (1-cm inner diameter) consisted of a central tube (10 cm in length) and two arms (10 cm in length, offset by 60°) connected to two different glass odor bottles. One glass odor bottle was 50 cm in height, with a 10-cm inner diameter that contained pepper plants (14-day post-viral infection); the other glass odor bottle was 5 cm in height, with a 3-cm inner diameter for plant VOCs. The airflow in the olfactometer (200 mL/min) was filtered through activated carbon and calibrated using a flow meter at the end of each arm. To remove all visual cues, the Y-tube was positioned horizontally in a black airtight cubic box (90 cm × 60 cm × 40 cm). The tested odor sources (pepper plant VOCs) were enclosed in the odor bottles 5 min prior to each test to allow the odors to fill the arms. Thrips (2-day-old, starved for 1 h) were individually placed in the central tube and allowed to choose between the two arms. […] If the thrips had not made a choice after being placed in the straight arm for 5 min, the insect behaviour was scored as “no selection,” and it was not counted in the total data. […]

Anagrus nilaparvatae = system: Anagrus nilaparvatae; design: method as in PMID 31300659; settings: 1:20,000 dilution; cited from earlier work

FintCSP1-Thr28Ala, sequence (A0A891LVF4 entry or part of it T28A): as the sequence (A0A891LVF4 entry or part of it E67A) above, with T9A, A48E counted along it

Question: Which IC50 (FintCSP1-Thr28Ala) does the source give for `CC/C=C\CC=O` [cis-3-hexenal] here?
Answer: The IC50 was over 100 µM.

Question: And the “affinity for cis-3-hexenal (in words)” value (FintCSP1-Thr28Ala; FintCSP1-Thr28Ala, competitive fluorescent assay)?
Answer: The value was “no affinity”.

Question: And the IC50 (FintCSP1-Glu67Ala)?
Answer: Its IC50 is over 100 µM.

Question: What about the “affinity for cis-3-hexenal (in words)” value (FintCSP1-Glu67Ala; FintCSP1-Glu67Ala, competitive fluorescent assay) of the same molecule?
Answer: The value was “no affinity”.

Question: And the IC50 (FintCSP1-Phe27Ala)?
Answer: The IC50 was 53.5 ± 3.07 µM.

Question: What about the Ki (FintCSP1-Phe27Ala) of the same molecule?
Answer: The Ki was 41.1 ± 2.36 µM.

Question: What about the “affinity for cis-3-hexenal (in words)” value (FintCSP1-Phe27Ala; FintCSP1-Phe27Ala compared with wild-type FintCSP1) of the same molecule?
Answer: The value was “weaker affinity”.

Question: And the IC50 (FintCSP1-Lys26Ala)?
Answer: The IC50 was over 100 µM.

Question: What about the “affinity for cis-3-hexenal (in words)” value (FintCSP1-Lys26Ala; FintCSP1-Lys26Ala, competitive fluorescent assay) of the same molecule?
Answer: Its value is “no affinity”.

Question: What about the IC50 (FoccCSP-Glu67Ala) of the same molecule?
Answer: Its IC50 is 92.9 ± 2.14 µM.

Question: What about the Ki (FoccCSP-Glu67Ala) of the same molecule?
Answer: The Ki was 83.7 ± 1.93 µM.

Question: And the “binding affinity to cis-3-hexenal (in words)” value (FoccCSP-Glu67Ala; FoccCSP-Glu67Ala compared to the wild-type protein)?
Answer: Its value is “significantly decreased binding affinities”.

Question: And the IC50 (FoccCSP-Thr29Ala)?
Answer: Its IC50 is over 100 µM.

Question: And the “affinity for cis-3-hexenal (in words)” value (FoccCSP-Thr29Ala; FoccCSP-Thr29Ala)?
Answer: The value was “no affinity”.

Question: And the IC50 (FoccCSP-Asp64Ala)?
Answer: The IC50 was 65.9 ± 0.79 µM.

Question: What about the Ki (FoccCSP-Asp64Ala) of the same molecule?
Answer: The Ki was 62.2 ± 0.75 µM.

Question: What about the “binding affinity to cis-3-hexenal (in words)” value (FoccCSP-Asp64Ala; FoccCSP-Asp64Ala compared to the wild-type protein) of the same molecule?
Answer: The value was “significantly decreased binding affinities”.

Question: And the IC50 (FoccCSP-Thr28Ala)?
Answer: The IC50 was over 100 µM.

Question: What about the “affinity for cis-3-hexenal (in words)” value (FoccCSP-Thr28Ala; FoccCSP-Thr28Ala) of the same molecule?
Answer: The value was “no affinity”.

Question: What about the “preference of dsFoccCSP-silenced F. occidentalis (in words)” value (F. occidentalis) of the same molecule?
Answer: Its value is “no clear preference”.

Question: What about the “attraction of Anagrus nilaparvatae (in words)” value (Anagrus nilaparvatae) of the same molecule?
Answer: The value was “attracts Anagrus nilaparvatae”.
